Molecules are shown by their SMILES. Bounds are passed on as bounds.

Data set [1] addresses T1, Carboxypeptidase B2 (Homo sapiens, UniProt Q96IY4).
T1 sequence (Q96IY4 whole entry): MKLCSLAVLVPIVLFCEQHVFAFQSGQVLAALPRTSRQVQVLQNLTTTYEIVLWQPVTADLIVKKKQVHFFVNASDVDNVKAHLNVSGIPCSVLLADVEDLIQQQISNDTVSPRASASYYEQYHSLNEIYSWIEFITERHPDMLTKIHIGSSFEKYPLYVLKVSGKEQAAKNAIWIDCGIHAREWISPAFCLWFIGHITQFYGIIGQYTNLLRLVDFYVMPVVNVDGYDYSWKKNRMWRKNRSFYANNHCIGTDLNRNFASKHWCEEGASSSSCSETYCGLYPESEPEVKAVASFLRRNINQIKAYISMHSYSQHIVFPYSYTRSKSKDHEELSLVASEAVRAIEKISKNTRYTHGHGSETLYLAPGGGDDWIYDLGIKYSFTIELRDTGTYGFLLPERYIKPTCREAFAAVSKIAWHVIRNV
The data set can be described thus: Inhibition of active form of human recombinant TAFI assessed as substrate turnover every 15 seconds for 30 mins.

In data set [2] the target is T2, Carboxypeptidase B (Homo sapiens, UniProt P15086).
T2 sequence (P15086 whole entry): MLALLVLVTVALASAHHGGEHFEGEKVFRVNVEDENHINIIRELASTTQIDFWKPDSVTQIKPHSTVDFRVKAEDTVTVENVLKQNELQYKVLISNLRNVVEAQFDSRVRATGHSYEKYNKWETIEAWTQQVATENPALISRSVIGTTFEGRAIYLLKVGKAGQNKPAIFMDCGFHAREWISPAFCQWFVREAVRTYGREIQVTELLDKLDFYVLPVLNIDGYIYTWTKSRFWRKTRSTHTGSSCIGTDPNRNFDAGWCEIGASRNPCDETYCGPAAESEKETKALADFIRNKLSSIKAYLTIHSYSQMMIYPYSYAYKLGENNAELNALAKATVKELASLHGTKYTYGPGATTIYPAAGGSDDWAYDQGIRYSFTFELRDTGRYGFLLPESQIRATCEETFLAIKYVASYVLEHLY
The data set is described as follows: Inhibition of human pancreatic carboxypeptidase B.

Data set [3] can be described thus: Oral bioavailability in rat at 5 mg/kg. In kind it is ADME, organism-based. The note with it: in vivo.
Data set [4] relates to Plasma. The data set can be described thus: Plasma protein binding in rat. Format: ADME, cell-free.
Data set [5] can be described thus: Half life in rat at 5 mg/kg, po. Format: ADME, organism-based. Details: dose 5 mg/kg, route oral. The following applies: in vivo.
Data set [6] can be described thus: Half life in rat at 2 mg/kg, iv. The following applies: in vivo. In kind it is ADME, organism-based. Set-up: dose 2 mg/kg, route intravenous.
The nature of data set [7]: Clearance in rat at 2 mg/kg, iv. In kind it is ADME, organism-based. Set-up: dose 2 mg/kg, route intravenous. The note with it: in vivo.
Data set [8] in a line: Volume of distribution in rat at 2 mg/kg, iv. In kind it is ADME, organism-based. Set-up: dose 2 mg/kg, route intravenous. The note with it: in vivo.
Data set [9] in a line: Half life in human at 10 mg/kg, iv. Format: ADME, organism-based. Set-up: dose 10 mg/kg, route intravenous. The note with it: in vivo.
Data set [10] in a line: Clearance in human at 10 mg/kg, iv. In kind it is ADME, organism-based. Set-up: dose 10 mg/kg, route intravenous. The following applies: in vivo.
The nature of data set [11]: Volume of distribution in human at 10 mg/kg, iv. Set-up: dose 10 mg/kg, route intravenous. The following applies: in vivo. Format: ADME, organism-based.

Usually Ki stands for the equilibrium dissociation constant of an inhibitor or competing ligand from its target. `CCCn1cnc(C[C@H](NCCN)C(=O)O)c1`: the Ki in data set [1] was 0.15 µM; in data set [2], 1.16 µM.

With `NCCO[C@@H](Cc1cn(-c2ccccc2)cn1)C(=O)O`, the Ki in data set [1] was found to be 0.0035 µM; in data set [2], 0.027 µM.

Turning to `CC(C)(C)c1ccc(-n2cnc(C[C@H](OCCN)C(=O)O)c2)cc1`, the Ki in data set [1] amounted to 0.0057 µM; in data set [2] it was 0.049 µM.

With `C[C@H](CN)O[C@@H](Cc1cn(-c2ccccn2)cn1)C(=O)O`, the Ki in data set [1] came to 0.0058 µM; in [2], 0.265 µM.

For the compound `NCCO[C@@H](Cc1cn(CCC2CCCCC2)cn1)C(=O)O`, the Ki was 0.0082 µM in data set [1] and 0.027 µM in [2].

Take `C[C@H](CN)O[C@@H](Cc1cn(-c2ccccc2)cn1)C(=O)O`: the Ki was 0.0075 µM in [1] and 0.24 µM in data set [2].

As for `CCCn1cnc(C[C@@H](OCCN)C(=O)O)c1`, the Ki in data set [1] and in data set [2] was above 10 µM throughout.

In general, bioavailability refers to dose-corrected exposure relative to a reference, in per cent. Read a high bioavailability as good availability. The half-life is the time needed for the level to fall by half in the phase considered. A word on the clearance: it is a measure of how efficiently the substance is removed, as volume per time. Read a high clearance as efficient removal. Broadly, the Vd is a proportionality between amount in the body and measured concentration, not a real space. In the case of `CCCn1cnc(C[C@H](OCCN)C(=O)O)c1`, the bioavailability in [3] was found to be 9.8%. Further, in data set [4], the PPB was 0%. Also, the half-life in [5] is 2.1 h; in [6], 2.7 h. In addition, the figures for the Ki in data set [1] and in data set [2] were 0.0067 µM and 0.238 µM, respectively. In data set [7], this compound yielded a clearance of 13.4 mL/min/kg. Besides, in data set [8], the Vd stood at 3.1 L/kg.

Take `CCCn1cnc(CC(OCCNC)C(=O)O)c1` (racemic): the Ki in data set [1] was 0.407 µM; in data set [2], above 10 µM.

For the compound `CCCCn1cnc(CC(OCCN)C(=O)O)c1` (racemic), the Ki in [1] turned out to be 0.015 µM; in data set [2], 0.36 µM.

`Cc1ccccc1-n1cnc(CC(OCCN)C(=O)O)c1` (racemic): the Ki in [1] was 0.065 µM; in [2], 2.72 µM.

Take `CCCn1cnc(C[C@H](CCCN)C(=O)O)c1` [UK-396,082]: the bioavailability in [3] worked out at 10.6%. Further, the half-life in data set [9] was 4 h; in [5], 2.4 h; in data set [6], 2.1 h. In addition, the PPB in [4] stood at 0%. Besides, the clearance in [10] was determined as 1.5 mL/min/kg; in data set [7] it was 10.2 mL/min/kg. The Ki was 0.016 µM in data set [1] and 0.206 µM in data set [2]. Moreover, the values for the Vd in data set [11] and in data set [8] were 0.5 L/kg and 1.9 L/kg, respectively.

Values taken from ChEMBL document CHEMBL1153173, “Oxygenated analogues of UK-396082 as inhibitors of activated thrombin activatable fibrinolysis inhibitor” (Bioorg Med Chem Lett, 2010).
